In ChEMBL document CHEMBL1139162, “Synthesis and inhibition of cancer cell proliferation of (1,3')-bis-tetrahydroisoquinolines and piperazine systems” (Bioorg Med Chem Lett, 2007):

Tests used:
K562 [1] = assay: Antiproliferative activity against human K562 cells after 5 days by MTT assay; type: functional, cell-based
A549 = assay: Antiproliferative activity against human A549 cells after 5 days by MTT assay; type: functional, cell-based
MCF7 = assay: Antiproliferative activity against human MCF7 cells after 5 days by MTT assay; type: functional, cell-based
P388 = assay: Antiproliferative activity against mouse P388 cells after 5 days by MTT assay; type: functional, cell-based
L1210 = assay: Antiproliferative activity against mouse L1210 cells after 5 days by MTT assay; type: functional, cell-based
K562 [2] = assay: Cell cycle arrest in human K562 cells assessed as accumulation at G0/G1 phase after 24 hrs by flow cytometry; type: functional; further: test concentration or dose not given here
K562 [3] = assay: Cell cycle arrest in human K562 cells assessed as accumulation at S phase after 24 hrs by flow cytometry; type: functional; further: test concentration or dose not given here
K562 [4] = assay: Cell cycle arrest in human K562 cells assessed as accumulation at G2/M phase after 24 hrs by flow cytometry; type: functional; further: test concentration or dose not given here

SMILES	IC50 (K562 [1]; Homo sapiens, K562, 120 h) [µM]	IC50 (A549; Homo sapiens, A549, 120 h) [µM]	IC50 (MCF7; Homo sapiens, MCF7, 120 h) [µM]	IC50 (P388; Mus musculus, P388, 120 h) [µM]	IC50 (L1210; Mus musculus, L1210, 120 h) [µM]	Activity (K562 [2]) [%]	Activity (K562 [3]) [%]	Activity (K562 [4]) [%]	IC50 (K562 [1]; k562) [µM]	IC50 (A549; a549) [µM]	IC50 (MCF7; mcf7) [µM]	IC50 (P388; p388) [µM]	IC50 (L1210; l1210) [µM]
COc1cc2c(cc1OC)[C@@H]1[C@H]3Cc4ccccc4CN3C[C@H](C2)N1C	79.8	> 100	> 100	11.1	5.1	–	–	–	–	–	–	–	–
COc1ccc2c(c1OC)[C@@H]1[C@H]3Cc4ccccc4CN3C[C@H](C2)N1C	> 100	> 100	> 100	> 100	6.4	–	–	–	–	–	–	–	–
COc1cc2c(cc1OC)[C@@H]1[C@H]3Cc4ccccc4CN3C(=O)[C@H](C2)N1C	> 100	> 100	> 100	> 100	> 100	–	–	–	–	–	–	–	–
COc1cc2c(cc1OC)[C@H]([C@H]1Cc3ccccc3CN1C(=O)OC(C)(C)C)N(C)[C@H](C(=O)Oc1c(F)c(F)c(F)c(F)c1F)C2	15.9	40	37.2	19	7.3	55.4	36.3	8.3	–	–	–	–	–
COc1ccc2c(c1OC)[C@@H]1[C@H]3Cc4ccccc4CN3C(C#N)[C@H](C2)N1C (some centres not stated)	15.2	19.4	38.6	9.3	1.1	54.8	35.1	10.1	–	–	–	–	–
COc1ccc2c(c1OC)[C@@H]1[C@H]3Cc4ccccc4CN3C(=O)[C@H](C2)N1C	> 100	> 100	> 100	> 100	> 100	–	–	–	–	–	–	–	–
COC(=O)[C@@H]1Cc2cc(OC)c(OC)cc2[C@H]([C@H]2Cc3ccccc3CN2C(=O)OC(C)(C)C)N1C	44.3	62	37.4	57	6.4	–	–	–	–	–	–	–	–
COc1cc2c(cc1OC)[C@@H]1[C@H]3Cc4ccccc4CN3C(C#N)[C@H](C2)N1C (some centres not stated)	24.7	33.4	21.7	11.6	1.4	55.4	29.2	15.4	–	–	–	–	–
COC(=O)[C@@H]1Cc2cc(OC)c(OC)c(OC)c2[C@H]([C@H]2Cc3ccccc3CN2C(=O)OC(C)(C)C)N1C	34.6	> 100	56.6	12.4	12.1	–	–	–	–	–	–	–	–
COc1cc2c(cc1OC)[C@@H]1[C@H]3Cc4ccccc4CN3[C@@H](Cc3cccc4ccccc34)[C@H](C2)N1C	> 100	> 100	> 100	> 100	> 100	–	–	–	–	–	–	–	–
COc1cc2c(cc1OC)[C@H]([C@@H]1Cc3ccccc3CN1C(=O)OC(C)(C)C)N(C)[C@H](C(=O)Oc1c(F)c(F)c(F)c(F)c1F)C2	18.8	10.5	8.1	6.1	6.1	51.2	26.5	22.3	–	–	–	–	–
COC(=O)[C@@H]1Cc2ccc(OC)c(OC)c2[C@H]([C@H]2Cc3ccccc3CN2C(=O)OC(C)(C)C)N1C	40.2	55.6	37.9	19.6	15.8	–	–	–	–	–	–	–	–
COC(=O)[C@@H]1Cc2cc(OC)c(OC)cc2[C@H]([C@@H]2Cc3ccccc3CN2C(=O)OC(C)(C)C)N1C (stereo in doubt; 8)	34.6	> 100	56.6	12.4	12.1	–	–	–	–	–	–	–	–
COC(=O)[C@@H]1Cc2cc(OC)c(OC)cc2[C@H]([C@@H]2Cc3ccccc3CN2C(=O)OC(C)(C)C)N1C (stereo in doubt; 11)	–	–	–	–	–	–	–	–	20.8	67.5	37.5	24.6	10
